From publication PMC10570959 (The Journal of Biological Chemistry, 2023)

Legend:
[1] = In vitro metabolic stability in human liver microsomes; type: in vitro ADME; conditions: 5 μM compound, 400 μg/ml HLM, 37 °C, timepoints 0, 30, 60 min; result in words
[2] = biological target: T1, 5-HT1A receptor (Homo sapiens, UniProt P08908); experiment: Radioligand competition assay; type: binding; conditions: 0.5 nM [3H]8-hydroxy-DPAT; mean ± SD of three independent replicates
T1 sequence (P08908 1-422): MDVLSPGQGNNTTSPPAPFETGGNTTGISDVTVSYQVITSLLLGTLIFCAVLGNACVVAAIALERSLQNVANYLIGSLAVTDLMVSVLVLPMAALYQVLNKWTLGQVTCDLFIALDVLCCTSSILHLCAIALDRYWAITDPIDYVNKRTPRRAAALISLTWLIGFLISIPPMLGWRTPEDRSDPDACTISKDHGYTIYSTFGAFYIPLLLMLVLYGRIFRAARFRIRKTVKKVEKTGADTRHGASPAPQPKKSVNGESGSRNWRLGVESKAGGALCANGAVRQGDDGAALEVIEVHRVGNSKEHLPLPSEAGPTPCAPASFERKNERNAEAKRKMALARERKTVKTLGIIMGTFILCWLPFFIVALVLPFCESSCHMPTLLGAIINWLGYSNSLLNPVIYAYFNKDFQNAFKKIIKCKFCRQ

[3] = biological target: 5-HT2A receptor (Homo sapiens, UniProt P28223); conditions: read-out: 5-HT2A Ki; cited from earlier work
[4] = tested on: RmNMT; type: biochemical, Rhinella marina; conditions: for Higher conversion of substrate by RmNMT compared with OcINMT: from Table 1 activities
[5] = tested on: MAO-A; conditions: rat liver mitochondria; result in words; cited from earlier work
[6] = tested on: mice; conditions: result in words; cited from earlier work
[7] = radiolabeled compound injected into rabbits; result in words; cited from earlier work
[8] = tested on: HsINMT; conditions: read-out: Km (HsINMT); cited from earlier work
[9] = tested on: OcINMT; conditions: cited from earlier work
[10] = tested on: RmNMT; type: biochemical, Rhinella marina; conditions: 30 °C, 10 min
[11] = standard in vitro assay, 1 h, 37 °C, mean ± SD, triplicate

5-HT2A receptor, sequence (P28223 whole entry): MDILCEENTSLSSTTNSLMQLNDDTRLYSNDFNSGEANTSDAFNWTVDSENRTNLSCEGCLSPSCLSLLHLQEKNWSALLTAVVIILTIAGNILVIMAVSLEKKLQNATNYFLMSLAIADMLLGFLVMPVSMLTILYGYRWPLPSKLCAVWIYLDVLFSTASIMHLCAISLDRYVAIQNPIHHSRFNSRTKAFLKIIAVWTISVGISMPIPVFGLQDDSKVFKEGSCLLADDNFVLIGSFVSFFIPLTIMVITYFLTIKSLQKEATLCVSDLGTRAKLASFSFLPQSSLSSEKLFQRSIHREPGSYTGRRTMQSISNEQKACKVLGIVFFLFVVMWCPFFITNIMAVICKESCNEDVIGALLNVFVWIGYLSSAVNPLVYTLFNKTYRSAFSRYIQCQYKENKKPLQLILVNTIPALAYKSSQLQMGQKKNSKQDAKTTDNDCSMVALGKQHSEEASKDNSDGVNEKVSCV

## Cc1[nH]c2ccccc2c1CCN [2-Methyltryptamine]
[1]
  Metabolic stability during exposure to human liver microsome: showed greater stability
[2]
  5-HT1A Ki: micromolar levels

## CN(C)CCc1c[nH]c2cc(F)cc(O)c12 [6-fluoro-psilocin]
[3]
  Ki: 13 nM

## CNCCc1c[nH]c2ccccc12 [N-Methyltryptamine]
[4]
  Higher conversion of substrate by RmNMT compared with OcINMT: 27 fold
[4]; [11]
  RmNMT enzyme activity, product DMT: 10.44 ± 0.46
[5]
  Activity as MAO-A substrate: substrates of MAO-A

## NCCc1c[nH]c2cccc(O)c12 [4-Hydroxytryptamine]
[6]
  Head-twitch response: does not induce head-twitch response

## NCCc1c[nH]c2ccc(O)cc12 [5-Hydroxytryptamine (serotonin), 5-Hydroxytryptamine]
[4]
  RmNMT enzyme activity, product Bufotenin: 4.65 ± 0.112

## NCCc1c[nH]c2ccccc12 [Tryptamine]
[7]
  Persistence in brain tissue: disappeared within minutes
[8]
  Km: 2920 µM
[4]
  Higher conversion of substrate by RmNMT compared with OcINMT: 18 fold
[4]; [11]
  RmNMT enzyme activity, product N-Methyltryptamine: 3.51 ± 0.079
[5]
  Activity as MAO-A substrate: substrates of MAO-A
[9]; read-out: Km (OcINMT)
  Km: 270 µM
[10]
  kcat (RmNMT): 0.00052 s⁻¹

## COc1ccc2c(CCN(C)C)c[nH]c2c1 [6-methoxy-DMT]
[3]
  Ki: 7300 nM

## CN(C)CCc1c[nH]c2ccc(O)cc12 [Bufotenin, 5-hydroxy-DMT]
[1]
  Metabolic stability during exposure to human liver microsome: degraded faster than psilocin

## CN(C)CCc1c[nH]c2ccccc12 [DMT, N,N-dimethyltryptamine]
[5]
  Activity as MAO-A substrate: could not be detected
[9]; result in words
  Inhibition of OcINMT by its product: noncompetitively inhibited
[3]
  Ki: 1200 nM
